From patent US9839642B2, “Beta-tetrazolyl-propionic acids as metallo-beta-lactamase inhibitors” (priority 2014, dated 2017)

Assays:
[1] = tested on: Klebsiella pneumoniae expressing VIM-1 (IHMA599644); experiment: Antibiotic potentiation activity: synergistic concentration (MITC95) with imipenem, growth by OD600; assay type: cell-based; conditions: K. pneumoniae IHMA599644 (VIM-1), 95% inhibition of growth
How it was run: (§1)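 MITC95 = lowest inhibitor concentration giving 95% growth inhibition, read by absorbance after 22–24 h at 35° C. Compound range 200 μM to 0.195 μM, imipenem fixed at 1 or 4 μg/ml, bacteria in 1.1×CAMHB from saline suspension diluted 1:100.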

[2] = tested on: Escherichia coli expressing NDM-1 (CLB30016); experiment: as above; assay type: cell-based; conditions: E. coli CLB30016 (NDM-1), 95% inhibition of growth
How it was run: as §1

[3] = tested on: Serratia marcescens expressing IMP-1 (CL5741); experiment: as above; assay type: cell-based; conditions: S. marcescens CL5741 (IMP-1), 95% inhibition of growth
How it was run: as §1

[4] = biological target: NDM-1 (Klebsiella pneumoniae, UniProt C7C422); experiment: Enzyme activity: determination of IC50, fluorescence assay with CCF2-FA substrate; assay type: biochemical; conditions: NDM-1 enzyme 1 pM, CCF2-FA 1.25 μM, 2 hours at 25° C.; read-out: NDM1 IC50
How it was run: (§2)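 In pH 7 phosphate buffer (100 mM) with 10 μM ZnSO4 and 0.005% Tween-20, CCF2-FA substrate (1.25 μM final) was hydrolysed for 2 h at 25 °C by NDM-1, IMP-1 or VIM-1 at 1, 2 or 30 pM in the presence of inhibitor at 20–0.00063 μM. Emission 460 nm/excitation 405 nm; 4-parameter curve fit gave IC50.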

[5] = biological target: VIM-1 (Pseudomonas aeruginosa, UniProt A0A0F7KYQ8); experiment: as above; assay type: biochemical; conditions: VIM-1 enzyme 30 pM, CCF2-FA 1.25 μM, 2 hours at 25° C.; read-out: VIM1 IC50
How it was run: as §2

[6] = biological target: IMP-1 (Serratia marcescens, UniProt P52699); experiment: as above; assay type: biochemical; conditions: IMP-1 enzyme 2 pM, CCF2-FA 1.25 μM, 2 hours at 25° C.; read-out: IMP1 IC50
How it was run: as §2

Chain of NDM-1 (C7C422 29-270, looked up, species assumed): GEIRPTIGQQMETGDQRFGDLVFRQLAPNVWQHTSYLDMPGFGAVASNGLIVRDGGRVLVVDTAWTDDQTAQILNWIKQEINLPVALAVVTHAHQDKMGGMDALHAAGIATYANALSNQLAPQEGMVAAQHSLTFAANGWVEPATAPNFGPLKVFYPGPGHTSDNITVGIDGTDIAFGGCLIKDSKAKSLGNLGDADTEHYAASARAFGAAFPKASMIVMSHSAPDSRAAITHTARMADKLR
Chain of IMP-1 (P52699 19-246, looked up, species assumed): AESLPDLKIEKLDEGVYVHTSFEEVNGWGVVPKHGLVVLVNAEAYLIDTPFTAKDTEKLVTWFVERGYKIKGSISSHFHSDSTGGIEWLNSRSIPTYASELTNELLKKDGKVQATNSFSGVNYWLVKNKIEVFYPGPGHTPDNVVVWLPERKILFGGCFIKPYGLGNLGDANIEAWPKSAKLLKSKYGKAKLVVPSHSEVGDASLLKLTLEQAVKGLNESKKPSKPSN

Structure (SMILES)	VIM1 KP599644 MITC95 [1] [µM]	NDM1 EC30016 MITC95 [2] [µM]	IMP1 SM5741 MITC95 [3] [µM]	IC50 [4] [nM]	IC50 [5] [nM]	IC50 [6] [nM]
CC(C)C[C@H](C(=O)O)[C@H](Cc1ccc(N2CCC(CN)CC2)nc1)c1nnn[nH]1 [Example 307, (2S)-2-[(1S)-2-{6-[4-(aminomethyl)piperidin-1-yl]pyridin-3-yl}-1-(1H-tetrazol-5-yl)ethyl]-4-methylpentanoic acid]	25	4.7	6.2	120	24	390
CC(C)C[C@H](C(=O)O)[C@H](Cc1ccc(N2CCC3(CC2)CNC3)nc1)c1nnn[nH]1 [Example 308, (2S)-2-[(1S)-2-[6-(2,7-diazaspiro[3.5]non-7-yl)pyridin-3-yl]-1-(1H-tetrazol-5-yl)ethyl]-4-methylpentanoic acid]	25	3.1	9.4	120	32	370
CC(C)C[C@H](C(=O)O)[C@H](Cc1ccc(N2CCCC(CO)C2)nc1)c1nnn[nH]1 (stereo partly drawn) [Example 309, (2S)-2-[(1S)-2-{6-[3-(hydroxymethyl)piperidin-1-yl]pyridin-3-yl}-1-(1H-tetrazol-5-yl)ethyl]-4-methylpentanoic acid]	75	6.2	6.2	62	24	150
CC(C)C[C@H](C(=O)O)[C@H](Cc1ccc(N2CCC(N)C2)nc1)c1nnn[nH]1 (stereo partly drawn) [Example 310, (2S)-2-[(1S)-2-[6-(3-aminopyrrolidin-1-yl)pyridin-3-yl]-1-(1H-tetrazol-5-yl)ethyl]-4-methylpentanoic acid]	12.5	4.7	25	430	4.6	1800
CNC(=O)C1CCCN(c2ccc(C[C@H](c3nnn[nH]3)[C@H](CC(C)C)C(=O)O)cn2)C1 (stereo partly drawn) [Example 311, (2S)-4-methyl-2-[(1S)-2-{6-[3-(methylcarbamoyl)piperidin-1-yl]pyridin-3-yl}-1-(1H-tetrazol-5-yl)ethyl] pentanoic acid]	100	6.2	9.4	87	26	150
CC(C)C[C@H](C(=O)O)[C@H](Cc1ccc(N2CCC(CNS(C)(=O)=O)CC2)nc1)c1nnn[nH]1 [Example 312, (2S)-4-methyl-2-[(1S)-2-[6-(4-{[(methylsulfonyl)amino]methyl}piperidin-1-yl)pyridin-3-yl]-1-(1H-tetrazol-5-yl)ethyl]pentanoic acid]	150	9.4	31	42	48	250
CC(C)C[C@H](C(=O)O)[C@H](Cc1ccc(N2CCC(O)C2)nc1)c1nnn[nH]1 (stereo partly drawn) [Example 313, (2S)-2-[(1S)-2-[6-(3-hydroxypyrrolidin-1-yl)pyridin-3-yl]-1-(1H-tetrazol-5-yl)ethyl]-4-methylpentanoic acid]	12.5	1.6	12.5	75	3.8	360
CC(C)C[C@H](C(=O)O)[C@H](Cc1ccc(N2CCC(CO)CC2)nc1)c1nnn[nH]1 [Example 314, (2S)-2-[(1S)-2-{6-[4-(hydroxymethyl)piperidin-1-yl]pyridin-3-yl}-1-(1H-tetrazol-5-yl)ethyl]-4-methylpentanoic acid]	75	6.2	12.5	49	16	190
CC(C)C[C@H](C(=O)O)[C@H](Cc1ccc(N2CCCC2CO)nc1)c1nnn[nH]1 (stereo partly drawn) [Example 315, (2S)-2-[(1S)-2-{6-[2-(hydroxymethyl)pyrrolidin-1-yl]pyridin-3-yl}-1-(1H-tetrazol-5-yl)ethyl]-4-methylpentanoic acid]	38	3.1	6.2	67	6	61
CC(C)C[C@H](C(=O)O)[C@H](Cc1ccc(N[C@@H]2CC[C@H](N)C2)nc1)c1nnn[nH]1 [Example 316, (2S)-2-[(1S)-2-(6-{[(1R,3S)-3-aminocyclopentyl]amino}pyridin-3-yl)-1-(1H-tetrazol-5-yl)ethyl]-4-methylpentanoic acid]	12.5	1.6	12.5	450	22	1200
CC(C)C[C@H](C(=O)O)[C@H](Cc1ccc(N[C@H]2CC[C@H](N)C2)nc1)c1nnn[nH]1 [Example 317, (2S)-2-[(1S)-2-(6-{[(1S,3S)-3-aminocyclopentyl]amino}pyridin-3-yl)-1-(1H-tetrazol-5-yl)ethyl]-4-methylpentanoic acid]	18.8	1.6	12.5	350	14	1600
CC(C)C[C@H](C(=O)O)[C@H](Cc1ccc(NCCC(C)N)nc1)c1nnn[nH]1 (stereo partly drawn) [Example 318, (2S)-2-[(1S)-2-{6-[(3-aminobutyl)amino]pyridin-3-yl}-1-(1H-tetrazol-5-yl)ethyl]-4-methylpentanoic acid]	12.5	1.6	18.8	370	11	2000
CC(C)C[C@H](C(=O)O)[C@H](Cc1ccc(NC2CNCc3ccccc32)nc1)c1nnn[nH]1 (stereo partly drawn) [Example 319, (2S)-4-methyl-2-[(1S)-2-[6-(1,2,3,4-tetrahydroisoquinolin-4-ylamino)pyridin-3-yl]-1-(1H-tetrazol-5-yl)ethyl]pentanoic acid]	25	12.5	18.8	350	13	1000
CC(C)C[C@H](C(=O)O)[C@H](Cc1ccc(NCCC(N)C(F)(F)F)nc1)c1nnn[nH]1 (stereo partly drawn) [Example 320, (2S)-2-[(1S)-2-{6-[(3-amino-4,4,4-trifluorobutyl)amino]pyridin-3-yl}-1-(1H-tetrazol-5-yl)ethyl]-4-methylpentanoic acid]	50	1.6	12.5	83	15	320
CC(C)C[C@H](C(=O)O)[C@H](Cc1ccc(NC2CCNC2)nc1)c1nnn[nH]1 (stereo partly drawn) [Example 321, (2S)-4-methyl-2-[(1S)-2-[6-(pyrrolidin-3-ylamino)pyridin-3-yl]-1-(1H-tetrazol-5-yl)ethyl]pentanoic acid]	18.8	3.1	18.8	440	5.1	1600
